Data on 6 compounds can be found in publication PMC6162703, “Interaction of 2′R-ochratoxin A with Serum Albumins: Binding Site, Effects of Site Markers, Thermodynamics, Species Differences of Albumin-binding, and Influence of Albumin on Its Toxicity in MDCK Cells” (Toxins, 2018).

Several values for one entry are separate records, joined by “and”; a condition that tells them apart may be missing. Equal values may be shown once.

For data set [1], the target named is T1, HSA (Homo sapiens, UniProt P02768).
T1 construct: purchased Sigma-Aldrich
As to conditions: cited from earlier work.

The next data set concerns the target rat serum albumin (RSA) (Rattus norvegicus, UniProt P02770). The data set is described as follows: Fluorescence spectroscopy of 2′R-OTA/OTA-RSA complex (binding constant by Hyperquad, fluorescence enhancement). As to conditions: for Kd: K in L/mol, PBS pH 7.4, 25 °C. The protocol: (§1) To test this hypothesis, the fluorescence emission spectra of 2′R-OTA (Figure 7A) and OTA (Figure 7B) were recorded in the absence and presence of albumins from different species, including human (HSA), bovine (BSA), porcine (PSA), and rat (RSA) serum albumins (λex = 394 nm).
(§2) However, excitation of the same samples at 394 nm leads to the excitation of both free and albumin-bound 2′R-OTA [23, 24]. […] Binding constants of 2′R-OTA-albumin complexes were determined by the Hyperquad program, based on the fluorescence intensities measured at 447 nm (Figure 8C,D).
(§3) Fluorescence spectroscopic analyses, including anisotropy measurements, were carried out employing a Hitachi F-4500 fluorescence spectrophotometer. Spectroscopic measurements were performed in phosphate buffered saline (PBS, pH 7.4) at 25 °C in the presence of air. Fluorescence emission spectrum of 2′R-OTA (1 µM) was recorded in the presence of increasing concentrations of albumin (0.0, 0.1, 0.25, 0.5, 0.75, 1.0, 1.25, 1.5, 2.0, 3.0 and 5.0 µM) using 295 and 394 nm as excitation wavelengths. At 394 nm, we excited directly 2′R-OTA and its albumin complex. However, using 295 nm excitation wavelength, albumin-bound 2′R-OTA was excited as a result of the energy transfer between albumins and 2′R-OTA [23, 31].
(§4) Binding constants (K) of mycotoxin-albumin complexes were calculated by non-linear fitting, using the Hyperquad2006 program package (Protonic Software) as described in previous studies. The stoichiometry of 2′R-OTA-albumin complexes was calculated based on the model associated with the lowest standard deviation.

Data set [2] deals with T1, HSA. The experiment in a line: Thermodynamics of 2′R-OTA-HSA complex formation (van’t Hoff, six temperatures). It counts as binding. From the text:
Since thermodynamic data give a deeper insight into the nature of protein-ligand interactions (including binding forces are involved in the complex formation), the binding ability of 2′R-OTA towards HSA was also examined at different temperatures. According to the van’t Hoff equation (Equation (2)), the logK values expressed as the function of the appropriate reciprocal temperatures show good linearity (Figure 6).
For the deeper insight into 2′R-OTA-HSA interaction, binding constants of mycotoxin-albumin complexes were also determined at six different temperatures (298, 301, 304, 307, 310 and 313 K). The binding constants were determined by the Hyperquad2006 program package, using 394 and 447 nm as excitation and emission wavelengths, respectively. Thermodynamic parameters associated to the complex formation between 2′R-OTA and HSA were determined based on the van ’t Hoff equation: (2) logK=−ΔG /RT=−ΔH/2.303RT+ΔS/2.303R where ΔG, ΔH, and ΔS denote the Gibbs free energy, enthalpy, and entropy changes of the binding reaction, respectively; while R is the gas constant and T refers the temperature.

Data set [3] has as its target human serum albumin (HSA) (Homo sapiens, UniProt P02768). The data set is described as follows: Fluorescence spectroscopy of 2′R-OTA-HSA complex (binding constant by Hyperquad, fluorescence enhancement). As for the experimental part: as §1, §2, §3, §4
Data set [4] deals with IHKE and HepG2 cell lines. The conditions noted are these: in vitro studies; cited from earlier work.
Data set [5] concerns the target bovine serum albumin (BSA) (Bos taurus, UniProt P02769). The data set is described as follows: Fluorescence spectroscopy of 2′R-OTA/OTA-BSA complex (binding constant by Hyperquad, fluorescence enhancement). The conditions noted are these: for Kd: K in L/mol, PBS pH 7.4, 25 °C. As for the experimental part:
as §1, §2, §3, §4

The test system of data set [6] is MDCK cells. The data set is described as follows: Co-treatment of MDCK cells with OTA and 2′R-OTA (ATP levels/well). As to conditions: sub-toxic 2′R-OTA concentrations, 24 h. It counts as cell-based, canine. As for the experimental part: Since 2′R-OTA appears in the circulation together with OTA, the toxic action of OTA in the presence of increasing 2′R-OTA concentrations was also tested. Both mycotoxins occupy Site I as their primary binding sites in albumin, therefore, 2′R-OTA may able to displace OTA from HSA, resulting in the increased cellular uptake and cytotoxicity of OTA in the presence of 2′R-OTA. Because 40 g/L HSA completely abolished the acute toxic action of ochratoxins, co-treatment of MDCK cells with OTA and 2′R-OTA was investigated without albumin and in the presence of 10% FBS. ATP levels/well were quantified after 24 h incubation. […] In the presence of FBS (Figure 10B), the 2′R-OTA-induced further loss in cell viability may be partly attributed to the displacement of OTA from albumin by 2′R-OTA. […] Therefore, other toxicokinetic and/or toxicodynamic mechanism(s) may be involved. Despite its relatively lower toxicity, when simultaneously present 2′R-OTA with OTA, 2′R-OTA can increase the effect of OTA.
MDCK (Madin-Darby canine kidney epithelial cell line, ATCC: CCL-34) cell culture was maintained in DMEM with 10% FBS, penicillin (100 U/mL), and streptomycin (100 µg/mL) at 37 °C in a humidified environment (5% CO2). […] After 24 h incubation, cell viability was evaluated based on cellular ATP and total protein levels. […]

In data set [7] the target is porcine serum albumin (PSA) (Sus scrofa, UniProt P08835). The experiment in a line: Fluorescence spectroscopy of 2′R-OTA/OTA-PSA complex (binding constant by Hyperquad, fluorescence enhancement). The conditions noted are these: λem = 447 nm; for Kd: K in L/mol, PBS pH 7.4, 25 °C. As for the experimental part:
as §1, §2, §3, §4

Data set [8] concerns MDCK cells. It counts as cell-based, canine. As to conditions: 24 h; for effect on the concentration of ATP and total protein: 0–50 µM. The text has this:
Similarly to OTA, 2′R-OTA also forms very stable complexes with albumins (Table 2). Therefore, it was reasonable to hypothesize that the presence of albumin may decrease the 2′R-OTA-induced toxicity in cell experiments, due to the entrapment of the mycotoxin in the cell medium by albumin. To test the influence of albumin on the in vitro effects of ochratoxins, the acute cellular toxicity of 2′R-OTA and OTA was investigated in the absence and presence of HSA and fetal bovine serum (FBS). MDCK kidney cells were treated with the mycotoxins at increasing concentrations (0–50 µM) for 24 h with and without 10% FBS or 40 g/L HSA. Ten percent FBS is commonly used in cell culture media (it yields approximately 3.5 g/L final concentration of BSA) in cell experiments, whereas approximately 40 g/L HSA circulates in the human blood. The mycotoxin-induced loss of cell viability was evaluated based on ATP and total protein levels. […] Under the applied conditions, the presence of 10% FBS or 40 g/L HSA (without ochratoxins) had no significant effect on cell viability (data not shown). […] The weaker effect of FBS can be attributed to the lower BSA content of the cell medium (3.5 g/L BSA verses 40 g/L HSA). Since albumins form very stable complexes with both 2′R-OTA and OTA, albumin likely reduces the cellular uptake of these mycotoxins, resulting in their lower cellular toxicity.
MDCK (Madin-Darby canine kidney epithelial cell line, ATCC: CCL-34) cell culture was maintained in DMEM with 10% FBS, penicillin (100 U/mL), and streptomycin (100 µg/mL) at 37 °C in a humidified environment (5% CO2). Cells were trypsinized and plated in 96-well sterile plastic plates (approximately 10^4 cells/well) for overnight pre-incubation. Next day, the culture medium was replaced with fresh one (with or without 10% FBS or 40 g/L HSA), then cells were treated with increasing concentrations of 2′R-OTA and/or OTA (0, 1, 5, 10, 20 and 50 µM; in 150 µL medium/well). After 24 h incubation, cell viability was evaluated based on cellular ATP and total protein levels. […]

The conditions of data set [9]: humans; cited from earlier work.
The conditions of data set [10]: humans; cited from earlier work. This is another data set of the same source.
Data set [11] deals with T1, HSA. The format is binding. As to conditions: 1.0 µM 2′R-OTA, 1.5 µM HSA, site marker 0–30 µM, PBS pH 7.4.
Where [12] appears, read: both excitation wavelengths (295 or 394 nm).
Setting [13] is: 1 µM mycotoxin, 5 µM albumin, PBS, λex = 394 nm.

porcine serum albumin (PSA), sequence (P08835 25-607): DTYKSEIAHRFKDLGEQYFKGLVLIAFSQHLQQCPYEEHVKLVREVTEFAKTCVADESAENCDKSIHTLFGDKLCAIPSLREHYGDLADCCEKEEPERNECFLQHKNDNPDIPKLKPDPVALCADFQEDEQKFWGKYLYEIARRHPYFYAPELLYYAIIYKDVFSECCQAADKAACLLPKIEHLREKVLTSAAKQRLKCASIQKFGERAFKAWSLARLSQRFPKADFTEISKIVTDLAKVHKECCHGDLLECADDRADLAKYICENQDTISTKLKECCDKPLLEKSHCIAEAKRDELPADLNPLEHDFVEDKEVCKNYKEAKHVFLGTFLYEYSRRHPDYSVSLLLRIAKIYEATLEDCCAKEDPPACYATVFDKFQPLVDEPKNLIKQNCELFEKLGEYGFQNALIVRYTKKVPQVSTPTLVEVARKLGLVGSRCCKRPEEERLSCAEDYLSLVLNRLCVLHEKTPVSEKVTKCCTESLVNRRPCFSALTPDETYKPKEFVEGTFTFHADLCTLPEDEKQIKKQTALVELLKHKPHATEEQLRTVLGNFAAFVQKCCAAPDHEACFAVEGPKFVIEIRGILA
bovine serum albumin (BSA), sequence (P02769 25-607): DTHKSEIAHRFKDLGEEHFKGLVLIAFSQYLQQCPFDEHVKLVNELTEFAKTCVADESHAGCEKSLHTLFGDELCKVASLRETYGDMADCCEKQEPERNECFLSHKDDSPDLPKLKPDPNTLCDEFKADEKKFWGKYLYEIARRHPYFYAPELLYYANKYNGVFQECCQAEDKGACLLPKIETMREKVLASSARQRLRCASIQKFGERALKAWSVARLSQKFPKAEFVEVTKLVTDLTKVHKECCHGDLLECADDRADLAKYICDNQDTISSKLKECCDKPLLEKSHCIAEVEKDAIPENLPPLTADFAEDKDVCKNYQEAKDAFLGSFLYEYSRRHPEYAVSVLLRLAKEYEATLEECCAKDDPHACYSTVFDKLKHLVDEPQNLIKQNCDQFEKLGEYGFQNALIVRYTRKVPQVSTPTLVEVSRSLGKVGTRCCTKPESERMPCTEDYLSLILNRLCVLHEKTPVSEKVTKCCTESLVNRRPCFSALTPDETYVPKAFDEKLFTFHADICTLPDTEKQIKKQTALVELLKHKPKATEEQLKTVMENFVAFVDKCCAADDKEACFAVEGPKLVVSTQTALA
rat serum albumin (RSA), sequence (P02770 25-608): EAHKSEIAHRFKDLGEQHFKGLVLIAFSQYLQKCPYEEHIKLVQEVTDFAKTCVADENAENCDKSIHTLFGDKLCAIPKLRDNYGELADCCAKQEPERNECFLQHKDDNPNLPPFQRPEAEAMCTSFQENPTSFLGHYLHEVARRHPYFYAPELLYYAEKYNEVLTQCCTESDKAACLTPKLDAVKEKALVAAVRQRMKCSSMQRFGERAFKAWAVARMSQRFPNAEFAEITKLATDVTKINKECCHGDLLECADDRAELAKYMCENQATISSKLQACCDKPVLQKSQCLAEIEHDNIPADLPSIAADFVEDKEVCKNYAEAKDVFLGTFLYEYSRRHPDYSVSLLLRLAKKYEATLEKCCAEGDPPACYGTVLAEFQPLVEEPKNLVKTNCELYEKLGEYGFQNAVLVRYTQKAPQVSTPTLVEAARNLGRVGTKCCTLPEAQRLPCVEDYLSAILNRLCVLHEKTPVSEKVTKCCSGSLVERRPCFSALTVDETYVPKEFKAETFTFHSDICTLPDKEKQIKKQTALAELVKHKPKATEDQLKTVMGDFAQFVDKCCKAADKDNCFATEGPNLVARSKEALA
human serum albumin (HSA), sequence (P02768 25-609): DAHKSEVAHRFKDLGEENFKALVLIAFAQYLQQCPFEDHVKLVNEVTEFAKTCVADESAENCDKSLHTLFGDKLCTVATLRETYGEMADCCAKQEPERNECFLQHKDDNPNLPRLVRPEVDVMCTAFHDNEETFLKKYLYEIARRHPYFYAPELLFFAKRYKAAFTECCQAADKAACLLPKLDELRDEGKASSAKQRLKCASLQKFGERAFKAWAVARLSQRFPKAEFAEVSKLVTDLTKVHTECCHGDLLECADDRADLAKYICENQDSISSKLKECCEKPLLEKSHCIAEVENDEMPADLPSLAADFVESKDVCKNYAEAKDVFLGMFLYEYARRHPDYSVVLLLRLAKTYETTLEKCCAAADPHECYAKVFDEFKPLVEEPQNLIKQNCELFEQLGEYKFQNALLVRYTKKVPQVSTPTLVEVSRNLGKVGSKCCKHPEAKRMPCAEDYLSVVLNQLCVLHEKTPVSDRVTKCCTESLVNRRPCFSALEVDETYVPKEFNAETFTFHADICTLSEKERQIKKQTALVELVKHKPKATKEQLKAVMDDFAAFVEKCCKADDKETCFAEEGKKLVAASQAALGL
T1 sequence (P02768 25-609): as above

Take `CC1=C2C(=CO[C@H](C)[C@H]2C)C(O)=C(C(=O)O)C1=O` [citrinin]: on HSA [1], the “binding constant K of the complex with HSA” value (from here on “binding constant K”) is 200000 L/mol.

As usually defined, the Kd is the constant that tells how readily two partners part at equilibrium. For the compound `C[C@@H]1Cc2c(Cl)cc(C(=O)N[C@H](Cc3ccccc3)C(=O)O)c(O)c2C(=O)O1` [2′R-OTA, 2′R-ochratoxin A], the “I/I0 (±SD), enhancement of the fluorescence of 2′R-OTA by complex formation” value is given as 2.22 ± 0.09 at rat serum albumin (RSA) (RSA, λex = 394 nm, λem = 447 nm, PBS); 2.35 ± 0.07 in [3] (HSA, λex = 394 nm, λem = 447 nm, PBS); 2.48 ± 0.06 in data set [5] (BSA, λex = 394 nm, λem = 447 nm, PBS); 1.98 ± 0.05 in [7] (λex = 394 nm, PBS). At rat serum albumin (RSA) (setting [12]), the “affinity to RSA relative to HSA and PSA” value was 2–3 times higher. The Kd on rat serum albumin (RSA) (logK (± SD) of binding constant, RSA, λex = 295 nm, λem = 447 nm) is 0.355 µM; on rat serum albumin (RSA) (logK (±SD) of binding constant, RSA, λex = 394 nm, λem = 447 nm), 0.0646 µM; in [3], 0.525 µM; in data set [5] (logK (± SD) of binding constant, BSA, λex = 295 nm, λem = 447 nm) it was 0.214 µM; in data set [5] (logK (±SD) of binding constant, BSA, λex = 394 nm, λem = 447 nm), 0.0479 µM; in data set [7] (logK (± SD) of binding constant, λex = 295 nm), 0.617 µM. In [7] (logK (±SD) of binding constant, λex = 394 nm), the Kd is 0.145 µM. The “ΔH of 2′R-OTA-HSA complex formation” value at HSA [2] (298-313 K) is -8.45 kJ/mol. The “ΔS of 2′R-OTA-HSA complex formation” value on HSA [2] (298-313 K) is 102.62 J K^-1 mol^-1. Also, the “ΔG of 2′R-OTA-HSA complex formation” value on HSA [2] (298K (room-temperature)) was -39.04 kJ/mol. In addition, the equilibrium dissociation constant (Kd) at 1 µM in [3] (human, human serum albumin (HSA) in PBS, pH 7.4) is 0.229 µM. In data set [4], the “acute toxicity compared with OTA” value is recorded as “lower acute toxicity”. Besides, the “fluorescence enhancement by BSA compared with other albumins” value in data set [5] (setting [13]) is listed as “highest emission signal”. Also, the “affinity to BSA relative to HSA and PSA” value in [5] (setting [12]) is recorded as 2–3 times higher. The “effect of 2′R-OTA on the toxic effect of OTA” value in the data set on MDCK cells [6] (absence of FBS, 1 μM OTA) was “increased significantly”; with MDCK cells [6] (presence of 10% FBS, 20 μM OTA) it was “increased significantly”. Moreover, the “affinity to HSA lower than that of OTA” value at HSA [1] is given as “approximately tenfold”. Moreover, the “binding constant K” value on HSA [1] was ~ 2 × 10^6 L/mol and 2 × 10^6 L/mol. For the same compound, on HSA [1], the “binding constant of 2′R-OTA-HSA complex higher than that of aflatoxin-HSA complexes” value is on record as 100 fold. Further, in the data set with MDCK cells [8], the “effect on the concentration of ATP and total protein” value is “dose-dependent, significant decreases”. For the same compound, in the data set on MDCK cells [8], the “cytotoxicity relative to OTA” value is recorded as “approximately 10 times lower”.

With `C[C@@H]1Cc2c(Cl)cc(C(=O)N[C@@H](Cc3ccccc3)C(=O)O)c(O)c2C(=O)O1` [OTA, Ochratoxin A], in [9], the plasma elimination half-life entry is “approximately one month”. In addition, the “fluorescence enhancement by RSA compared with other albumins” value at rat serum albumin (RSA) (setting [13]) is “highest fluorescence”. Also, the plasma protein binding in data set [10] is 99.8%. Also, at HSA [1], the “stability of OTA-HSA complex higher than that of the complex with bovine albumin” value is recorded as “approximately tenfold” and the “stability of OTA-HSA complex higher than that of the complex with rat albumin” value was approximately 30 fold. The “affinity order toward albumins of different species” value on HSA [1] (previous investigations) is recorded as “Human > bovine > porcine > rat”. Moreover, in the data set on MDCK cells [8], the “effect on the concentration of ATP and total protein” value is reported as “dose-dependent, significant decreases”.

Regarding `CN(C)c1ccc(N=Nc2ccc(S(=O)(=O)[O-])cc2)cc1.[Na+]` [methyl orange], the “affinity to HSA compared with another ligand” value at HSA [1] is reported as “much lower affinity to HSA than bilirubin”. In addition, at HSA [11], the “displacement of 2′R-OTA from HSA by the site marker” value was “strongly displaced”.

For the compound `C[C@H]1CCCC(=O)CCC/C=C/c2cc(O)cc(O)c2C(=O)O1` [zearalenone], at HSA [1], the “binding constant K” value was 10^5 L/mol.

As for `C=CC1=C(C)/C(=C/c2[nH]c(Cc3[nH]c(/C=C4\NC(=O)C(C)=C4C=C)c(C)c3CCC(=O)O)c(CCC(=O)O)c2C)NC1=O` [bilirubin], the “displacement of 2′R-OTA from HSA by the site marker” value on HSA [11] was “strongly displaced”.
